Values of other authors as cited in patent publication US20060160700A1, “Nadh-dependent cytochrome b5 reductase as target for herbicides” (Basf Aktiengesellschaft, priority 2002, published 2006).

Experiments:
[1] = test system: NADH-dependent cytochrome b5 reductase from various organisms; conditions: enzyme from various organisms; Golf et al. 1985, Tamura et al. 1983
[2] = target: T1, NADH-dependent cytochrome b5 reductase from human erthyrocytes (Homo sapiens, UniProt P00387); conditions: enzyme from human erythrocytes; Palmieri et al. 1990
T1 construct: host or cells: human erythrocytes
T1 sequence (P00387 24-301 limits assumed): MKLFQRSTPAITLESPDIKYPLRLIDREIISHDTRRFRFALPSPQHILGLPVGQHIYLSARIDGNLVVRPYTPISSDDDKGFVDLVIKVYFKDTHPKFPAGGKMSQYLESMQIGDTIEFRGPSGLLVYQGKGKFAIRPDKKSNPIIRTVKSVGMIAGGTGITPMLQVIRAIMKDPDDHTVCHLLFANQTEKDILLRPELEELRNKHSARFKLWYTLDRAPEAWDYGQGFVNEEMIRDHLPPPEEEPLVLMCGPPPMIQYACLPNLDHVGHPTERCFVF

[3] = target: T2, NADH-dependent cytochrome b5 reductase from rat liver microsomes (Rattus norvegicus, UniProt P20070); conditions: at a concentration of 0.5 mM, Golf et al. 1985
T2 construct: host or cells: rat liver microsomes
T2 sequence (P20070 1-301): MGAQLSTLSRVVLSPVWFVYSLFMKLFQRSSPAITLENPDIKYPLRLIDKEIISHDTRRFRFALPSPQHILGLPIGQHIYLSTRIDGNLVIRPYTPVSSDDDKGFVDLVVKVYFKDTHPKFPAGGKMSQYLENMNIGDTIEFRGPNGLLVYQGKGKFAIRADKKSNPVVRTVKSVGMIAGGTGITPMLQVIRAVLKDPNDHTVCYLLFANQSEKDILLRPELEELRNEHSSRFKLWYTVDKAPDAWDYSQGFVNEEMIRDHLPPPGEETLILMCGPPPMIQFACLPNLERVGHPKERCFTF

Compound	inhibition of NADH-dependent cytochrome b5 reductase (result in words) [1]	also measured
CCN1C(=O)C=CC1=O [N-ethylmaleimide]	capable of inhibiting	–
CCC1(CCC(C)C)C(=O)NC(=O)NC1=O [amytal]	capable of inhibiting	–
O=c1oc2ccccc2c(O)c1Cc1c(O)c2ccccc2oc1=O [dicoumarol]	capable of inhibiting	–
O=P(O)(O)O[C@H]1[C@H](OP(=O)(O)O)[C@@H](OP(=O)(O)O)[C@H](OP(=O)(O)O)[C@@H](OP(=O)(O)O)[C@H]1OP(=O)(O)O [inositol hexaphosphate]	–	concentrations that inhibit the NADH-dependent cytochrome b5 reductase [2]: millimolar range
CCN(CC)CCCC(C)Nc1c2ccc(Cl)cc2nc2ccc(OC)cc12 (stereo not drawn) [mepacrin]	capable of inhibiting	–
O=C(CC(=O)C(F)(F)F)c1cccs1 [thenoyltrifluoroacetone]	–	inhibition of NADH-dependent cytochrome b5 reductase [3]: 50%
